# US20100215710A1, “Beta-2 Adrenergic Receptor Agonists and Antagonists and Modulation of Wound Healing” (The Regents of the University of California, priority 2005, published 2010)
# Key:
# Assay type in all cases: cell-based
# human keratinocytes [1] = assay: Single cell migration assay, keratinocytes (clenbuterol, OA)
# Protocol: All single cell migration assays were performed on cells plated on glass cover-slips inserted into 35 mm plastic dishes (MatTek Corp., Ashland, Mass.) that had been coated for 1 hour at 37° C. with 60 μg/ml collagen L Cells were plated onto the collagen-coated glass cover-slips at a density of 250 cells/mm^2 for 3-6 hours at 37° C. Cells were either untreated (control), pre-treated with 10 nM okadaic acid (OA) (10 nM) for 45 minutes prior to the addition of OA (10 nM) and clenbuterol (1 μM) (OA/Clen) or treated with either OA or clenbuterol (1 μM) alone at time 0. The dishes were inserted into metal plates, maintained at 37° C., on inverted Nikon Diaphot microscopes to monitor single cell migration. Time-lapse images of the cell migratory response were digitally captured every 10 minutes over a one-hour period by Q-Imaging Retiga-EX cameras (Burnaby, BC, Canada) controlled by a custom automation written in Improvision Open Lab software (Lexington, Mass.) on a Macintosh G4. After each cell's center of mass was tracked using the Open Lab software, migration speed and distance were calculated and imported to Excel (Microsoft Corporation, Redmond, Wash.). Significance was taken as p<0.01, using Student's t test (unpaired) to compare the means of the control and β-AR agonist-treated cell populations.
# Keratinocytes were plated onto collagen-coated glass cover-slips at a concentration of 250 cells/mm^2 in KGM for 3-6 hours at 37° C. The migration of each single cell was monitored over a one-hour period, and the results were analyzed in excel as described. The speed of migration ([…]) is represented graphically in FIG. 1 Panel C, control n=57, clenbuterol n=57, OA n=60, OA-clenbuterol n=44. The data are representative of three independent experiments with at least two different keratinocyte strains. * P<0.01 between β-AR agonist and controls; #P<0.01 between OA-clenbuterol and clenbuterol alone.
# adult human CECs = assay: Immunofluorescent staining of actin and vinculin, adult human CECs
# Protocol: Sterile glass cover slips were transferred into 12 well dishes and collagen-coated with 60 μg/ml collagen I in PBS for 1 hour at 37° C. Cover slips were washed three times with CGM and 3×10^4 adult human CECs were added per well and allowed to attach for 3 hours or overnight. Cells were untreated (control […]), treated with 20 μM β-AR antagonist, 10 nM or 1 μM β-AR agonist for 15 minutes, 100 nM OA for 45 minutes, or pre-treated with 100 nM OA for 30 minutes prior to the addition of 10 nM or 1 μM β-AR agonist for 15 minutes. […]
# Cells plated in the absence of β-AR agonist are polarized and crescent shaped with a broad lamellipodium, characteristic of the migratory phenotype (Ridley et al. (2003) “Cell migration: integrating signals from front to back” Science 302:1704-9). […] Image J was used to measure the actin and vinculin associated fluorescence by measuring the mean pixel intensity (MPI) of 25 cells from each condition. Control cells have an MPI of 40.3+/−4.8. β-AR agonist treatment has no significant effect on actin and vinculin associated fluorescence; the MPI of β-AR agonist-treated cells is 44.6+/−2.
# human keratinocytes [2] = assay: Keratinocyte proliferation assay (β-AR agonist, OA)
# Protocol: Keratinocytes were released from the tissue culture plate by treatment with 0.25% trypsin/EDTA (Gibco, Grand Island, N.Y.), resuspended in KGM and counted using a haemocytometer. Cells were either untreated or pre-treated with okadaic acid (OA) (10 nM) for 45 minutes prior to β-AR agonist (1 μM) addition. 5×10^4 cells were plated per well in a 12 well plate in triplicate in the presence or absence of 1 μM β-AR agonist, 10 nM OA or both. Triplicate wells were harvested and counted on days 2, 4, 6, 8. The medium was changed every day. Significance was taken as p<0.01, using Student's t test (unpaired) to compare the means of the cell populations.
# 5×10^4 […] keratinocytes were plated per well in a 12 well plate in triplicate in the presence or absence of β-AR agonist (1 μM) (FIG. 2 Panel A; control represented by circles, 1 μM β-AR agonist by squares), or pre-treated with 10 nM OA for 30 minutes prior to the addition of OA alone or both OA and β-AR agonist, (FIG. 2 Panel B; OA represented by X's and OA/β-AR agonist by stars). Cells were harvested and counted on days 2, 4, 6, 8 as described. The data are representative of three independent experiments with at least two different keratinocyte strains. Values plotted are means+/−SEM. *P<0.01 between β-AR agonist and controls.
structure (smiles),measurement,setting,value
"C=C1[C@@H](O)[C@@H]2O[C@]3(CC[C@H](/C=C/[C@@H](C)[C@@H]4CC(C)=C[C@@]5(O[C@H](C[C@@](C)(O)C(=O)O)CC[C@H]5O)O4)O3)CC[C@H]2O[C@@H]1[C@@H](O)C[C@H](C)[C@H]1O[C@@]2(CCCCO2)CC[C@H]1C [OA, okadaic acid]",effect on keratinocyte migration,human keratinocytes [1]; OA 10 nM alone,no effect
same,effect on clenbuterol-induced reduction in speed,"human keratinocytes [1]; OA 10 nM pre-treatment, then OA plus 1 μM clenbuterol",completely prevents
same,effect on cytoskeletal organization,adult human CECs; OA 100 nM alone,no effect
same,effect on β2-AR-mediated alterations in cytoskeletal organization,adult human CECs; OA 100 nM pre-treatment prior to β-AR agonist 10 nM,prevents
same,effect on keratinocyte proliferation,human keratinocytes [2]; OA 10 nM alone,no effect
same,effect on β2-AR-mediated decrease in proliferation,"human keratinocytes [2]; OA 10 nM pre-treatment, then OA plus 1 μM β-AR agonist",completely prevents
